Measured values published in ChEMBL document CHEMBL3425434 (J Med Chem, 2015).
Active and inactive are the calls of the source. No cut-off for these calls is given here.

Legend:
[1] = molecular target: T1, Rho-associated protein kinase 2 (Homo sapiens, UniProt O75116); assay: Inhibition of human N-terminal GST-tagged ROCK2 expressed in baculovirus-infected insect cells using long S6 kinase peptide as substrate by radiometric assay in presence of [32P]ATP
[2] = Inhibition of ROCK-catalysed MLC Thr18/Ser19 phosphorylation in rat A7r5 cells after 90 mins by ELISA; format: cell-based; details: A7R5, 1.5 h
[3] = Half life in human plasma by LC-MS/MS analysis; format: ADME, cell-free
[4] = molecular target: T1, Rho-associated protein kinase 2; assay: Inhibition of human N-terminal GST-tagged ROCK2 expressed in baculovirus-infected insect cells using long S6 kinase peptide as substrate by radiometric assay in presence of [32P]ATP and 200 uM ATP
[5] = Stability in human plasma assessed as compound remaining after 60 mins by LC-MS/MS analysis; format: ADME, cell-free; details: read-out: Stability
[6] = Stability in human plasma assessed as compound remaining after 60 mins by LC-MS/MS analysis in presence of 5 uM cholinesterase inhibitor tacrine; format: ADME, cell-free; details: with tacrine (cholinesterase inhibitor), read-out: Stability
HDF-1 = assay: Induction of cell migration in human HDF-1 cells at 1 uM after 8 hrs by wound healing assay; format: functional, cell-based
[7] = Apparent permeability across human Caco2 cells; format: ADME, cell-based; details: Caco-2
[8] = Lipophilicity, log D of the compound at pH 7.4; format: physicochemical; details: buffer
[9] = molecular target: Rho-associated protein kinase 1 (Homo sapiens, UniProt Q13464); assay: Inhibition of human N-terminal GST-tagged ROCK1 expressed in insect cells using long S6 kinase peptide as substrate by radiometric assay in presence of [32P]ATP
[10] = Half life in human plasma by LC-MS/MS analysis in presence of 5 uM cholinesterase inhibitor tacrine; format: ADME, cell-free; details: with tacrine (cholinesterase inhibitor)
[11] = Stability in human plasma assessed as compound remaining after 2 hrs by LC-MS/MS analysis; format: ADME, cell-free; details: read-out: Stability

T1 sequence (O75116 whole entry): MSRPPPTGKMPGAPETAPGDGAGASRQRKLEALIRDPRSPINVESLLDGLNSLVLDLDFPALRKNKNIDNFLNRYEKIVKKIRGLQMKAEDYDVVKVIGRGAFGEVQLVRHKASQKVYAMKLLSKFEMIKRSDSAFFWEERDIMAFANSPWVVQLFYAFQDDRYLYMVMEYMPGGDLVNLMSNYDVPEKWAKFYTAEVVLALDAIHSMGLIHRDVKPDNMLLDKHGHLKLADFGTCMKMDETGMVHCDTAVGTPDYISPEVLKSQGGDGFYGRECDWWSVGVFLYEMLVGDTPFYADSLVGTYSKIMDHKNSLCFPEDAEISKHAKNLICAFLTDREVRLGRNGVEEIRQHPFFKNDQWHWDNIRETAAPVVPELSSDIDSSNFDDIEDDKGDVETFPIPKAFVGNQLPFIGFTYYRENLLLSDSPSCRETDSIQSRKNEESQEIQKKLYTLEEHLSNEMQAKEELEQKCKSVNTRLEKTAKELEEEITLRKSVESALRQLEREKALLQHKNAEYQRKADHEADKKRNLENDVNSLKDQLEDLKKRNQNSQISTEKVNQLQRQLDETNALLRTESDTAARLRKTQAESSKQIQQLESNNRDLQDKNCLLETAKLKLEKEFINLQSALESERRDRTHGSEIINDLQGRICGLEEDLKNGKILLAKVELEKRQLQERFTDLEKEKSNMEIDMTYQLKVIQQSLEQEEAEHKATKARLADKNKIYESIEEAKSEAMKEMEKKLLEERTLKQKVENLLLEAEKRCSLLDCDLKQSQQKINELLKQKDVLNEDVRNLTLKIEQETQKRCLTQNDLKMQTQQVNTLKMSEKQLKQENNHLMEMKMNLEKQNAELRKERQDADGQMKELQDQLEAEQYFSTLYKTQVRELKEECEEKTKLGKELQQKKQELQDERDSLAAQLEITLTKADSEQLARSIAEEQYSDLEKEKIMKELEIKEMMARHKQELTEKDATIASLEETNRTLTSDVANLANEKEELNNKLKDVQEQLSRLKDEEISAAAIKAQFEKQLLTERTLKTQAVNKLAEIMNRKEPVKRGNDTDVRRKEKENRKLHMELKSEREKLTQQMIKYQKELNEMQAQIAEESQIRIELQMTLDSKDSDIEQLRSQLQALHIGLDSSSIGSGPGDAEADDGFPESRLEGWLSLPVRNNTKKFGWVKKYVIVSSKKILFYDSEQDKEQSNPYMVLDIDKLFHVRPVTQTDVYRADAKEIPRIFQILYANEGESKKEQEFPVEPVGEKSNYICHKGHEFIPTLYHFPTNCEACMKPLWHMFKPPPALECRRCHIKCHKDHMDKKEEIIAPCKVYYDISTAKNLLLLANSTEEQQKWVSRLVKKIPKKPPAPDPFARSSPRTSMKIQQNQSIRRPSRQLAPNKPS
Rho-associated protein kinase 1, sequence (Q13464 whole entry): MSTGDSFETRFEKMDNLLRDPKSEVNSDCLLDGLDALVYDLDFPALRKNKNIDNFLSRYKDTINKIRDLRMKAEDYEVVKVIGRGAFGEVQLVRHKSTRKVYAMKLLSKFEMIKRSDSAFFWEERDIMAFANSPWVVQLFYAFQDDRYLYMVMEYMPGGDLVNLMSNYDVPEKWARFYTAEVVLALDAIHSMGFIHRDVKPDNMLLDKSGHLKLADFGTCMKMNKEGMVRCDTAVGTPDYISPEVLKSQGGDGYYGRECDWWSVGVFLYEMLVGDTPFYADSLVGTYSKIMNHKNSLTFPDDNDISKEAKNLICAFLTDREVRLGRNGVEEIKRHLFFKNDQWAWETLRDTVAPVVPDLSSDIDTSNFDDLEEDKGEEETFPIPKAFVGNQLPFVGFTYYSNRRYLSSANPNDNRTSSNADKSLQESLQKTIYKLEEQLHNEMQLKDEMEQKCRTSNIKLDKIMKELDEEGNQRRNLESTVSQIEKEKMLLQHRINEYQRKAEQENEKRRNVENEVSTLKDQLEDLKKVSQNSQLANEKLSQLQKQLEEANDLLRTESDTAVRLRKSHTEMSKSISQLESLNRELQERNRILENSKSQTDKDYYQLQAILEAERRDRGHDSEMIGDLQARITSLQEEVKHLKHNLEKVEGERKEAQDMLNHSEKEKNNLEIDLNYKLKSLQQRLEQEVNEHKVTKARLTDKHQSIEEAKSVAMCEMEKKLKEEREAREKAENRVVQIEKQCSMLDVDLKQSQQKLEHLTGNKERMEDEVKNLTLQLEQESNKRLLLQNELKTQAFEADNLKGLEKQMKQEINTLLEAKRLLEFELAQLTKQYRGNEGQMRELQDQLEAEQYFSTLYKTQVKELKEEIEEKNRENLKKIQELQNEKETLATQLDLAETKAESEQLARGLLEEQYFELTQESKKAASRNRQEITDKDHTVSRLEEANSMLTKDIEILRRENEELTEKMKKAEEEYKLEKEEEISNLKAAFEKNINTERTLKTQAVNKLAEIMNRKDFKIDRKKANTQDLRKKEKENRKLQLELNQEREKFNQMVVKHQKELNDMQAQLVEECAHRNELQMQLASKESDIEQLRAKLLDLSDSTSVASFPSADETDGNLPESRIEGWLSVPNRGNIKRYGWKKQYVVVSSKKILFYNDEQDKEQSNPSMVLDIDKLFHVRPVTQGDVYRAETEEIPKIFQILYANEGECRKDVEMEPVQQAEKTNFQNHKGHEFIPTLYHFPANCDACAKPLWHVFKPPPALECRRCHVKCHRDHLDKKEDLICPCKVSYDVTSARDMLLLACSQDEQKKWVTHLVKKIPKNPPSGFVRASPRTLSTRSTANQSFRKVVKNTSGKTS

| Compound | IC50 [1] [nM] | EC50 [2] [nM] | half-life [3] [min] | IC50 [4] [nM] | other results |
| --- | --- | --- | --- | --- | --- |
| NCc1ccc(C(=O)Nc2ccncc2F)cc1-c1cccc(C(=O)Nc2cccc(CC(=O)O)c2)c1 | 1.5 | 1300 | > 120 |  |  |
| C[C@@H](N)[C@H]1CC[C@H](C(=O)Nc2ccncc2)CC1 [Y-27632] |  | 630 | > 120 |  |  |
| C[C@H]1CNCCCN1S(=O)(=O)c1cccc2cncc(F)c12 | 3.8 | 210 |  | 197 |  |
| CCCCOC(=O)c1cccc(NC(=O)c2cccc(-c3cc(C(=O)Nc4ccncc4F)ccc3CN)c2)c1 | 27 | 180 | < 5 |  |  |
| COC(=O)c1ccc(F)c(C(=O)Nc2cccc(-c3cc(C(=O)Nc4ccncc4F)ccc3CN)c2)c1 | < 1 | 6.8 | 53 | 1.4 | remaining at 1 h [5]: 23%; remaining at 1 h [6]: 103% |
| CC[C@H](C)OC(=O)c1ccc(F)c(NC(=O)c2cccc(-c3cc(C(=O)Nc4ccncc4F)ccc3CN)c2)c1 | 5.5 | 50 | 39 | 72 |  |
| NCc1ccc(C(=O)Nc2ccncc2F)cc1-c1cccc(C(=O)Nc2cccc(C(=O)O)c2)c1 | 6.6 | 5900 | > 120 |  |  |
| CCCOC(=O)c1ccc(NC(=O)c2cccc(-c3cc(C(=O)Nc4ccncc4F)ccc3CN)c2)cc1 | < 1 | 8.3 | > 120 |  |  |
| COCCOC(=O)c1ccc(F)c(C(=O)Nc2cccc(-c3cc(C(=O)Nc4ccncc4F)ccc3CN)c2)c1 | < 1 | 26 | < 5 | 2.2 | remaining at 1 h [5]: 0%; remaining at 1 h [6]: 88% |
| NCc1ccc(C(=O)Nc2ccncc2F)cc1-c1cccc(C(=O)Nc2cccc(C(=O)O)c2F)c1 | 3.5 | > 10000 | > 120 |  |  |
| COC(=O)c1cccc(NC(=O)c2cccc(-c3cc(C(=O)Nc4ccncc4F)ccc3CN)c2)c1F | 1.2 | 11 | < 5 | 8.8 |  |
| CC[C@@H](C)OC(=O)c1ccc(F)c(NC(=O)c2cccc(-c3cc(C(=O)Nc4ccncc4F)ccc3CN)c2)c1 | 3.3 | 79 | 46 |  |  |
| CC(C)OC(=O)c1cccc(NC(=O)c2cccc(-c3cc(C(=O)Nc4ccncc4F)ccc3CN)c2)c1 | 7 | 150 | 34 |  |  |
| NCc1ccc(C(=O)Nc2ccncc2F)cc1-c1cccc(C(=O)Nc2ccc(CC(=O)OC3CCCOC3)cc2)c1 (stereo not given) | < 1 | 36 | 6 | < 1 |  |
| CCC(C)OC(=O)c1cccc(NC(=O)c2cccc(-c3cc(C(=O)Nc4ccncc4F)ccc3CN)c2)c1 (stereo not given) | 2.6 | 77 | 16 |  |  |
| NCc1ccc(C(=O)Nc2ccncc2F)cc1-c1cccc(C(=O)Nc2ccc(C(=O)O)cc2)c1 | 3.3 | 6600 | > 120 |  | Activity (HDF-1): inactive; Papp [7]: 0.08 ×10⁻⁶ cm/s; logD [8]: 0.56 |
| COC(=O)c1ccc(C(=O)Nc2cccc(-c3cc(C(=O)Nc4ccncc4F)ccc3CN)c2)cc1 | < 1 | 5.2 | > 120 | 3.1 |  |
| CCCOC(=O)c1ccc(F)c(NC(=O)c2cccc(-c3cc(C(=O)Nc4ccncc4F)ccc3CN)c2)c1 | 2.1 | 75 | < 5 |  |  |
| NCc1ccc(C(=O)Nc2ccncc2F)cc1-c1cccc(NC(=O)c2cc(C(=O)O)ccc2F)c1 | < 1 | 8900 | > 120 |  |  |

| Compound | IC50 [1] [nM] | EC50 [2] [nM] | half-life [3] [min] | IC50 [4] [nM] | other results |
| --- | --- | --- | --- | --- | --- |
| CC[C@@H](C)OC(=O)Cc1ccc(NC(=O)c2cccc(-c3cc(C(=O)Nc4ccncc4F)ccc3CN)c2)cc1 | < 1 | 31 | > 120 | < 1 |  |
| COC(=O)c1cccc(NC(=O)c2cccc(-c3cc(C(=O)Nc4ccncc4F)ccc3CN)c2)c1 | 1.1 | 79 | < 5 | 125 | IC50 [9]: < 1 nM; half-life [10]: 53 min |
| NCc1ccc(C(=O)Nc2ccncc2F)cc1-c1cccc(C(=O)OCC2CCCO2)c1 (stereo not given) |  | 94 | < 5 | 49 |  |
| CC(C)OC(=O)Cc1ccc(NC(=O)c2cccc(-c3cc(C(=O)Nc4ccncc4F)ccc3CN)c2)cc1 | < 1 | 37 | 94 | < 1 |  |
| NCc1ccc(C(=O)Nc2ccncc2F)cc1-c1cccc(C(=O)Nc2cccc(C(=O)OC3CCCC3)c2F)c1 | 1.4 | 43 | 9 | 41 |  |
| NCc1ccc(C(=O)Nc2ccncc2F)cc1-c1cccc(C(=O)Nc2ccc(CC(=O)OC3CCOCC3)cc2)c1 | < 1 | 79 | 7 | < 1 | remaining at 1 h [5]: 0%; remaining at 1 h [6]: 82% |
| COC(=O)Cc1cccc(NC(=O)c2cccc(-c3cc(C(=O)Nc4ccncc4F)ccc3CN)c2)c1 | 1.1 | 220 | < 5 | 144 | IC50 [9]: < 1 nM |
| NCc1ccc(C(=O)Nc2ccncc2F)cc1-c1cccc(C(=O)Nc2ccc(CC(=O)O)cc2)c1 | 1.8 | 3600 | > 120 |  |  |
| COC(=O)Cc1ccc(NC(=O)c2cccc(-c3cc(C(=O)Nc4ccncc4F)ccc3CN)c2)cc1 | < 1 | 31 | < 5 | 11 | IC50 [9]: < 1 nM; half-life [10]: 53 min |
| CC[C@H](C)OC(=O)Cc1ccc(NC(=O)c2cccc(-c3cc(C(=O)Nc4ccncc4F)ccc3CN)c2)cc1 | < 1 | 23 | 17 | < 1 | remaining at 1 h [5]: 42%; remaining at 1 h [6]: 101% |
| CN1CCC(OC(=O)Cc2ccc(NC(=O)c3cccc(-c4cc(C(=O)Nc5ccncc5F)ccc4CN)c3)cc2)CC1 | < 1 | 330 | < 5 | 4.6 |  |
| NCc1ccc(C(=O)Nc2ccncc2F)cc1-c1cccc(NC(=O)c2ccc(C(=O)O)cc2)c1 | 1 | 3600 |  |  |  |
| COC(=O)c1cccc(C(=O)Nc2cccc(-c3cc(C(=O)Nc4ccncc4F)ccc3CN)c2)c1 | < 1 | 17 | 64 | 2.1 |  |
| NCc1ccc(C(=O)Nc2ccncc2F)cc1-c1cccc(C(=O)Nc2cc(C(=O)O)ccc2F)c1 | 2 | 3900 | > 120 |  |  |
| NCc1ccc(C(=O)Nc2ccncc2F)cc1-c1cccc(C(=O)Nc2ccccc2)c1 | < 1 | 22 | > 120 | 31 | remaining at 2 h [11]: > 90%; Papp [7]: 2.3 ×10⁻⁶ cm/s |
| NCc1ccc(C(=O)Nc2ccncc2F)cc1-c1cccc(NC(=O)c2cccc(C(=O)O)c2)c1 | < 1 | 2000 | > 120 |  |  |
| CCCOC(=O)c1cccc(C(=O)Nc2cccc(-c3cc(C(=O)Nc4ccncc4F)ccc3CN)c2)c1 | 1.8 | 15 | < 5 |  |  |
| NCc1ccc(C(=O)Nc2ccncc2F)cc1-c1cccc(C(=O)Nc2ccc(CC(=O)OC3CCC3)cc2)c1 | 1.3 | 24 | 6 | 1.4 |  |
